ChEMBL document CHEMBL1121671, “Synthesis of analogues of acetylmethadol and methadol as potential narcotic antagonists” (J Med Chem, 1981)
The source made the active and inactive calls. The rule behind the calls is not given here.

Experiments:
[1] = target: T1, Opioid receptor (Rattus norvegicus, UniProt P33533+P34975+P33535); format: cell membranes, Brain, Membrane
[2] = target: T1, Opioid receptor; assay: Compound was evaluated for the inhibition of [3H]- naloxone binding to Opioid receptors in rat brain membrane in the presence of Na; format: cell membranes
[3] = target: T1, Opioid receptor; assay: Compound was evaluated for the inhibition of [3H]- naloxone Opioid receptors binding using rat brain membrane in the presence of 100 mM Na
[4] = species: Mus musculus; assay: Compound was evaluated for narcotic analgesia activity in mice by mouse writhing assay; format: functional
[5] = target: T1, Opioid receptor; assay: Compound was evaluated for the inhibition of [3H]- naloxone Opioid receptors binding using rat brain membrane in the absence of Na
[6] = species: Mus musculus; assay: Compound was evaluated for narcotic analgesia activity in mice by hot plate test; format: functional
[7] = species: Mus musculus; assay: Compound was evaluated for narcotic analgesia activity in mice by the tail flick test; format: functional
[8] = test system: Mus musculus; assay: Compound was evaluated for antagonism of tail-flick analgesia induced by 6.5 mg/kg of morphine sulfate at 1 mg/kg; format: functional
[9] = test system: Mus musculus; assay: Compound was evaluated for antagonism of tail-flick analgesia induced by 6.5 mg/kg of morphine sulfate at 0.3 mg/kg; format: functional
[10] = test system: Mus musculus; assay: Compound was evaluated for antagonism of tail-flick analgesia induced by 6.5 mg/kg of morphine sulfate at 10 mg/kg; Inactive; format: functional, organism-based
[11] = test system: Mus musculus; assay: Compound was evaluated for narcotic analgesia activity in mice by the tail flick test; Weak up to 30 and 38% analgesia at 30 mg/kg; format: functional, organism-based; design: dose 30 mg/kg
[12] = test system: Mus musculus; assay: Compound was evaluated for narcotic analgesia activity in mice by mouse writhing assay at 30 mg/kg; Inactive; format: functional, organism-based; design: dose 30 mg/kg

Row | SMILES | Ki [1] [nM] | Ki [2] [nM] | ED50 [4] [mg/kg] | ED50 [6] [mg/kg] | ED50 [7] [mg/kg] | further results
1 | CCC(O)C(CC(C)N(C)CC1CC1)(c1ccccc1)c1ccccc1 (centres undefined) | 600 | 5000 |  |  |  | 
2 | C=CCN(C)C(C)CC(c1ccccc1)(c1ccccc1)C(O)CC (centres undefined) | 150 | 2000 |  |  |  | 
3 | C=CCN(C)C(C)CC(c1ccccc1)(c1ccccc1)C(CC)OC(C)=O (centres undefined) |  |  | 2.5 | 10 | 3.1 | Ki [3]: 10000 nM; Ki [5]: 900 nM; ED80 [8]: 61.4 mg/kg; ED80 [9]: 56.9 mg/kg
4 | CN1CC[C@]23c4c5ccc(O)c4O[C@H]2[C@@H](O)C=C[C@H]3[C@H]1C5.CN1CC[C@]23c4c5ccc(O)c4O[C@H]2[C@@H](O)C=C[C@H]3[C@H]1C5.O=S(=O)(O)O |  |  | 0.82 | 3.05 | 3.3 | 
5 | CCC(OC(C)=O)C(CC(C)N(C)CC1CC1)(c1ccccc1)c1ccccc1 (centres undefined) | 2000 | 30000 |  |  |  | ED50 [10]: inactive; ED50 [11]: Weak activity; ED50 [12]: inactive
